Patent US20200163984A1, “USE OF ISOVALERYL SPIRAMYCIN I, II AND/OR III IN MANUFACTURING MEDICAMENT FOR TREATING AND/OR PREVENTING TUMOR, AND MEDICAMENT” (SHENYANG FUYANG PHARMACEUTICAL TECHNOLOGY CO., LTD., priority 2017, published 2020)
In brackets after ≈: the same amount, converted by molar mass.

Legend:
[1] = system: transplanted tumor of human prostate cancer cell PC3; experiment: PC3 transplanted tumor in nude mice; details: for tumor volume and relative tumor volume compared with the model group: low, medium and high doses, P<0.05; for mouse weight compared with the model group: in vivo
Procedure: Then cell concentration was adjusted to 1×10^7/ml with matrigel, then each nude mouse was inoculated subcutaneously with 0.2 ml of cells at its right armpit and recorded as the first day of inoculation. When the tumor grows to be greater than or equal to 100 mm^3, the mice were randomly divided into 11 groups with 6 mice in each group: a model group, a cyclophosphamide group, isovaleryl spiramycin I groups with doses of 25, 50 and 100 mg/kg, isovaleryl spiramycin II groups with doses of 25, 50 and 100 mg/kg, and isovaleryl spiramycin III groups with doses of 25, 50 and 100 mg/kg. Each group was continuously administered intragastrically for 30 days with a dose of 20 ml/kg. The mice were sacrificed the next day after drug withdrawal and the indicators were tested. The long diameter and short diameter of the tumor, and the body weight of each mouse were recorded every 3 days from drug administration to nude mouse sacrifice.
The body weight of the nude mice and the long diameter (a) and short diameter (b) of the transplanted tumor were measured every 3 days, and the tumor volume (v), relative tumor volume (RTV) and relative tumor proliferation rate (T/C) are calculated respectively according to the following formulas, wherein V=a×b^2/2; RTV=V/V0 (V0 is the tumor volume before administration, V is the tumor volume before sacrifice), and T/C (%)=treatment group RTV/model control group RTV×100%.
Each mouse was weighed and sacrificed. After the tumor was completely stripped off from the body of the mouse, the non-tumor tissues such as blood stains and fat were removed to weigh the tumor and calculate the tumor growth inhibition rate. The average tumor weight of each group of mice is used as an indicator of efficacy. Tumor growth inhibition rate (%)=(1−the average tumor weight of the treatment group/the average tumor weight of the model group)×100%.

[2] = system: human large cell lung cancer cells H460; details: H460, MTT, 48 hours
Procedure: (§1) The purpose of the assay is to evaluate the in vitro cell proliferation inhibition or cytotoxic activity of a tested sample.
(§2) MCF-7, MDA-MB-231, HepG2, A549, H460, H1299, 786-0, 769-P, U251, A172, HeLa, PC3, PANC-1, TE-1, SGC7901, and HT-29 were adherent tumor cells. The adherent tumor cells in the logarithmic growth phase were selected and digested with trypsin, then were prepared into a 4 to 5×10^4/ml cell suspension by a medium containing 10% fetal bovine serum. And the cell suspension was inoculated in a 96-well culture plate, and each well was 100 μL. The 96-well culture plate was cultured at 37° C. and 5% CO2 for 24 hours. The experimental group was replaced with a new culture medium containing different concentrations of the sample to be tested, namely, isovaleryl spiramycin I, isovaleryl spiramycin II, or isovaleryl spiramycin III, while the control group was replaced with a culture medium containing the same volume of solvent. Each group was set up with 3 parallel wells that were cultured at 37° C. and 5% CO2 for 48 hours. After the supernatant was removed, the wells were washed carefully for 3 times with PBS. And 100 μL of freshly prepared culture medium containing 0.5 mg/ml MTT was added to each well for continuous incubation for 4 hours at 37° C. After the supernatant was removed carefully, 150 μL of DMSO was added to each well, and after the material was mixed for 10 minutes with a micro-oscillator, the optical density value was measured at 492 nm with a microplate reader.
(§3) The inhibition rate of the medicament on tumor cell growth is calculated according to the following formula:
(§4) Tumor cell growth inhibition rate (%)=[A492 (negative control)−A492 (dosing group)]/A492 (negative control)×100%
(§5) And the half-inhibitory concentration (IC50) of the sample is determined therefrom.

human glioma cell U251 = details: U251, MTT, 48 hours
Procedure: as §1, §2, §3, §4, §5

[3] = system: human hepatoma cells HepG2; details: HepG2, MTT, 48 hours
Procedure: as §1, §2, §3, §4, §5

[4] = system: human renal cell adenocarcinoma cell 769-P; details: MTT, 48 hours
Procedure: as §1, §2, §3, §4, §5

[5] = system: human colon cancer cell HT-29; details: HT-29, MTT, 48 hours
Procedure: as §1, §2, §3, §4, §5

[6] = system: human large cell lung cancer cells H1299; details: H1299, MTT, 48 hours
Procedure: as §1, §2, §3, §4, §5

[7] = system: human non-small cell lung cancer cells A549; details: A549, MTT, 48 hours
Procedure: as §1, §2, §3, §4, §5

[8] = system: human esophageal cancer cell TE-1; details: TE-1, MTT, 48 hours
Procedure: as §1, §2, §3, §4, §5

[9] = system: human breast cancer cells MDA-MB-231; details: MDA-MB-231, MTT, 48 hours
Procedure: as §1, §2, §3, §4, §5

[10] = system: human cervical cancer cell HeLa; details: MTT, 48 hours
Procedure: as §1, §2, §3, §4, §5

[11] = system: human gastric adenocarcinoma cell SGC7901; details: SGC-7901, MTT, 48 hours
Procedure: as §1, §2, §3, §4, §5

[12] = system: human tissue lymphoma cell U937; details: U937, MTT, 48 h
[13] = PC3, 25 mg/kg (low dose) i.g. 30 days
[14] = PC3, 50 mg/kg (medium dose) i.g. 30 days
[15] = PC3, 100 mg/kg (high dose) i.g. 30 days

IC50 [2]	IC50 (human glioma cell U251)	IC50 [3]	IC50 [4]	IC50 [5]	IC50 [6]	IC50 [7]	IC50 [8]	IC50 [9]	IC50 [10]	IC50 [11]	IC50 [12]	SMILES	Inhibition Rate (tumor growth inhibition rate) [1, 13]	Relative Tumor Proliferation Rate (T/C) [1, 13]	Relative Tumor Volume (RTV) [1, 13]	Tumor Volume (d 1) [1, 13]	Tumor Volume (d 30) [1, 13]	Tumor Weight [1, 13]	Inhibition Rate (tumor growth inhibition rate) [1, 14]	Relative Tumor Proliferation Rate (T/C) [1, 14]	also measured
–	–	–	–	–	–	–	–	–	–	–	–	O=P1(N(CCCl)CCCl)NCCCO1 (stereo not shown) [Cyclophosphamide, cyclophosphamide, reference compound]	–	–	–	–	–	–	–	–	Body Weight (d 1) ([1]; PC3, 30 mg/kg i.g. 30 days): 21.57 ± 0.75 g; Body Weight (d 30) ([1]; PC3, 30 mg/kg i.g. 30 days): 16.43 ± 0.78 g; Inhibition Rate (tumor growth inhibition rate) ([1]; PC3, 30 mg/kg i.g. 30 days): 70.03%; Relative Tumor Proliferation Rate (T/C) ([1]; PC3, 30 mg/kg i.g. 30 days): 29.33%; Relative Tumor Volume (RTV) ([1]; PC3, 30 mg/kg i.g. 30 days): 5.73 ± 2.23; Tumor Volume (d 1) ([1]; PC3, 30 mg/kg i.g. 30 days): 155.36 ± 34.96 mm3; Tumor Volume (d 30) ([1]; PC3, 30 mg/kg i.g. 30 days): 834.50 ± 135.35 mm3; Tumor Weight ([1]; PC3, 30 mg/kg i.g. 30 days): 0.56 ± 0.17 g
19.31 ± 0.35 µg/mL (≈ 20.8 µM)	11.01 ± 0.32 µg/mL (≈ 11.9 µM)	17.90 ± 1.74 µg/mL (≈ 19.3 µM)	5.09 ± 0.04 µg/mL (≈ 5.49 µM)	17.30 ± 0.52 µg/mL (≈ 18.7 µM)	24.03 ± 2.07 µg/mL (≈ 25.9 µM)	19.93 ± 1.66 µg/mL (≈ 21.5 µM)	8.42 ± 1.53 µg/mL (≈ 9.08 µM)	18.12 ± 0.61 µg/mL (≈ 19.5 µM)	10.31 ± 0.27 µg/mL (≈ 11.1 µM)	11.28 ± 1.27 µg/mL (≈ 12.2 µM)	10.88 ± 0.05 µg/mL (≈ 11.7 µM)	CO[C@@H]1[C@@H](O[C@@H]2O[C@H](C)[C@@H](O[C@H]3C[C@@](C)(O)[C@@H](OC(=O)CC(C)C)[C@H](C)O3)[C@H](N(C)C)[C@H]2O)[C@@H](CC=O)C[C@@H](C)[C@@H](O[C@H]2CC[C@H](N(C)C)[C@@H](C)O2)/C=C/C=C/C[C@@H](C)OC(=O)C[C@H]1O [Isovaleryl spiramycin I, isovaleryl spiramycin I]	33.87%	70.43%	13.78 ± 3.15	127.59 ± 6.73 mm3	1758.15 ± 412.68 mm3	1.24 ± 0.51 g	51.33%	49.14%	Relative Tumor Volume (RTV) [1, 14]: 9.61 ± 3.15; Tumor Volume (d 1) [1, 14]: 186.59 ± 39.40 mm3; Tumor Volume (d 30) [1, 14]: 1706.14 ± 347.50 mm3; Tumor Weight [1, 14]: 0.91 ± 0.33 g; Inhibition Rate (tumor growth inhibition rate) [1, 15]: 71.01%; Relative Tumor Proliferation Rate (T/C) [1, 15]: 30.72%; Relative Tumor Volume (RTV) [1, 15]: 6.01 ± 1.78; Tumor Volume (d 1) [1, 15]: 175.94 ± 12.32 mm3; Tumor Volume (d 30) [1, 15]: 1041.69 ± 247.71 mm3; Tumor Weight [1, 15]: 0.55 ± 0.21 g; tumor volume and relative tumor volume compared with the model group ([1]; PC3): significantly lower; mouse weight compared with the model group [1]: no significant changes
41.16 ± 0.71 µg/mL (≈ 42.5 µM)	35.35 ± 1.57 µg/mL (≈ 36.5 µM)	37.94 ± 1.71 µg/mL (≈ 39.1 µM)	20.61 ± 0.48 µg/mL (≈ 21.3 µM)	31.05 ± 3.23 µg/mL (≈ 32 µM)	42.24 ± 0.44 µg/mL (≈ 43.6 µM)	36.97 ± 2.92 µg/mL (≈ 38.1 µM)	35.59 ± 2.64 µg/mL (≈ 36.7 µM)	49.60 ± 0.39 µg/mL (≈ 51.2 µM)	33.31 ± 0.40 µg/mL (≈ 34.4 µM)	39.14 ± 1.21 µg/mL (≈ 40.4 µM)	34.92 ± 0.81 µg/mL (≈ 36 µM)	COC1C(OC(C)=O)CC(=O)OC(C)CC=CC=CC(OC2CCC(N(C)C)C(C)O2)C(C)CC(CC=O)C1OC1OC(C)C(OC2CC(C)(O)C(OC(=O)CC(C)C)C(C)O2)C(N(C)C)C1O (stereo not shown) [Isovaleryl spiramycin II, isovaleryl spiramycin II]	23.49%	83.04%	16.24 ± 6.00	154.86 ± 4.11 mm3	2404.85 ± 672.33 mm3	1.44 ± 0.56 g	40.16%	60.08%	Relative Tumor Volume (RTV) [1, 14]: 11.75 ± 3.78; Tumor Volume (d 1) [1, 14]: 157.25 ± 38.97 mm3; Tumor Volume (d 30) [1, 14]: 1729.14 ± 128.57 mm3; Tumor Weight [1, 14]: 1.13 ± 0.43 g; Inhibition Rate (tumor growth inhibition rate) [1, 15]: 50.44%; Relative Tumor Proliferation Rate (T/C) [1, 15]: 44.48%; Relative Tumor Volume (RTV) [1, 15]: 8.70 ± 2.61; Tumor Volume (d 1) [1, 15]: 131.11 ± 22.05 mm3; Tumor Volume (d 30) [1, 15]: 1162.46 ± 495.46 mm3; Tumor Weight [1, 15]: 0.93 ± 0.27 g; tumor volume and relative tumor volume compared with the model group ([1]; PC3): significantly lower; mouse weight compared with the model group [1]: no significant changes
28.80 ± 0.19 µg/mL (≈ 29.3 µM)	16.46 ± 1.54 µg/mL (≈ 16.7 µM)	27.42 ± 3.52 µg/mL (≈ 27.9 µM)	10.75 ± 0.56 µg/mL (≈ 10.9 µM)	22.68 ± 2.32 µg/mL (≈ 23.1 µM)	32.40 ± 0.41 µg/mL (≈ 33 µM)	28.84 ± 1.73 µg/mL (≈ 29.3 µM)	20.19 ± 1.83 µg/mL (≈ 20.5 µM)	29.47 ± 0.28 µg/mL (≈ 30 µM)	15.86 ± 0.62 µg/mL (≈ 16.1 µM)	17.26 ± 0.79 µg/mL (≈ 17.6 µM)	15.59 ± 0.08 µg/mL (≈ 15.9 µM)	CCC(=O)O[C@@H]1CC(=O)O[C@H](C)C/C=C/C=C/[C@H](O[C@H]2CC[C@H](N(C)C)[C@@H](C)O2)[C@H](C)C[C@H](CC=O)[C@H](O[C@@H]2O[C@H](C)[C@@H](O[C@H]3C[C@@](C)(O)[C@@H](OC(=O)CC(C)C)[C@H](C)O3)[C@H](N(C)C)[C@H]2O)[C@H]1OC [Isovaleryl spiramycin III, isovaleryl spiramycin III]	25.43%	75.75%	14.82 ± 7.55	146.91 ± 6.70 mm3	1914.85 ± 729.54 mm3	1.40 ± 0.54 g	40.16%	55.01%	Inhibition Rate (tumor growth inhibition rate) ([1]; PC3, 25 mg/kg (low dose) i.g. 30 days, listed as isovaleryl spiramycin III): 25.44%; Relative Tumor Volume (RTV) [1, 14]: 10.76 ± 2.24; Tumor Volume (d 1) [1, 14]: 187.01 ± 50.28 mm3; Tumor Volume (d 30) [1, 14]: 1935.79 ± 228.06 mm3; Tumor Weight [1, 14]: 1.12 ± 0.45 g; Relative Tumor Proliferation Rate (T/C) ([1]; PC3, 50 mg/kg (medium dose) i.g. 30 days, listed as isovaleryl spiramycin III): 55.02%; Inhibition Rate (tumor growth inhibition rate) [1, 15]: 60.37%; Relative Tumor Proliferation Rate (T/C) [1, 15]: 34.57%; Relative Tumor Volume (RTV) [1, 15]: 6.76 ± 1.61; Tumor Volume (d 1) [1, 15]: 155.11 ± 7.98 mm3; Tumor Volume (d 30) [1, 15]: 1051.03 ± 272.23 mm3; Tumor Weight [1, 15]: 0.75 ± 0.25 g; tumor volume and relative tumor volume compared with the model group ([1]; PC3): significantly lower; mouse weight compared with the model group [1]: no significant changes
